Data reported in publication doi:10.1101/2024.08.19.608619, “Discovery of potent SARS-CoV-2 nsp3 macrodomain inhibitors uncovers lack of translation to cellular antiviral response” (bioRxiv, 2024).
In brackets after ≈: the same amount, converted by molar mass. Several values for one entry are separate records, joined by “and”; a condition that tells them apart may be missing. Identical values can stand only once. Like-named read-outs stand apart in the source and are kept apart here.

Key:
[1] = In vitro kinetic solubility
[2] = Permeability Papp (AB) MDR1/MDCKII; details: for papp_a_to_b_mean: A to B; for perc_recovery_a_to_b_mean / perc_recovery_a_to_b_inhibitor_mean: recovery A to B; for perc_recovery_a_to_b_inhibitor_mean / perc_recovery_b_to_a_inhibitor_mean: MDR1-MDCKII
LogD = details: pH 7.4
SARS-CoV-2 nsp3-mac1 [3] = target: T1, SARS-CoV-2 nsp3-mac1 (Severe acute respiratory syndrome coronavirus 2, UniProt P0DTD1); assay: biochemical; set-up: SARS-CoV-2 nsp3 macrodomain TR-FRET single point, per cent inhibition, n=2
[4] = Hepatic microsomal stability, MLM; format: in vitro ADME
SARS-CoV-2 nsp3-mac1 [5] = target: T1, SARS-CoV-2 nsp3-mac1; assay: biochemical; details: for hill_slope: TR-FRET dose response curve fit; for perc_max_measured: highest measured response; for perc_min_measured: lowest measured response
SARS-CoV-2 nsp3-mac1 [6] = target: T1, SARS-CoV-2 nsp3-mac1; assay: biochemical; format: biochemical; details: SARS-CoV-2 nsp3 macrodomain TR-FRET single point, concentration 50.0 uM
[7] = Hepatic microsomal stability, HLM; format: in vitro ADME, human; details: In vitro human liver microsomal stability; for perc_remaining_no_cofactor: no cofactor; for microsomal CLint: liver microsomes
HeLa-ACE2 cells = details: for perc_max_measured: highest measured response of the dose series; for perc_min_measured: lowest measured response of the dose series
iPSC pneumocytes = iPSC pneumocytes cytotoxicity; format: cell-based; details: for perc_max_measured: highest measured response of the dose series; for perc_min_measured: lowest measured response of the dose series
Description: Supplement media-1.zip/Cytotoxicity.csv, table | column: cc10; cc50; perc_min_measured; perc_max_measured

in vitro = assay: in vitro; set-up: Cytotoxicity in iPSC-derived pneumocytes, CC50; details: human, ipsc-derived pneumocytes, read-out: 50.0
Description: Finally, we consider the hypothesis that interferon response triggers ADP-ribosylation, thus profiling the compounds in enhanced and physiologically relevant interferon environments could reveal detectable antiviral effects. […] Furthermore, HeLa-ACE2 cells, and all cancerous cell lines, display defective innate immune response ([1]). As such, we also assess our compound in a primary-like iPSC-derived pneumocyte system (Figure 7C), showing likewise a lack of antiviral activity in this physiologically relevant innate immunity system.

[8] = system: SARS-CoV-2, isolate USA-WA1/2020; assay: microbe, parasite or virus in culture; format: cell-based; details: HeLa-ACE2 SARS-CoV-2 antiviral effect without P-gp inhibitor; for perc_max_measured: maximum measured response of dose series; for EC50: read-out: ec50; for EC90: read-out: ec90; for perc_min_measured: minimum measured response of dose series
SARS-CoV-2 = assay: Antiviral effect in iPSC-derived pneumocyte system; format: cell-based; details: iPSC pneumocytes SARS-CoV-2 antiviral effect; for perc_max_measured: maximum measured response of dose series; for perc_min_measured: minimum measured response of dose series
MDR1 = assay: Permeability Papp (AB) MDR1/MDCKII; details: dog, MDCK-MDR1, papp_a_to_b_mean, In vitro MDR1-MDCKII permeability, A to B, mean
[9] = In vitro kinetic solubility, ph 7.4
[10] = In vitro MDR1-MDCKII permeability, mean
[11] = In vitro mouse liver microsomal stability
[12] = In vitro mouse liver microsomal stability; no cofactor
[13] = TR-FRET dose response, supplement, read-out: ic50
[14] = protocol HeLa-ACE2 cytotoxicity
[15] = protocol iPSC pneumocytes cytotoxicity
[16] = In vitro mouse liver microsomal stability, no cofactor

Row | Structure (SMILES) | solubility_mean [1, 9] | perc_recovery_a_to_b_mean [2, 10] | logd (LogD; In vitro LogD) | clint [4, 11] | perc_remaining [4, 11] | t_half [4, 11] | clint [7] | perc_remaining [7] | t_half [7] | perc_remaining_no_cofactor [7] | perc_max_measured (HeLa-ACE2 cells; [14]) | perc_min_measured (HeLa-ACE2 cells; [14]) | perc_max_measured [8] | EC50 [8] | EC90 [8] | EC50 (SARS-CoV-2) | EC90 (SARS-CoV-2) | perc_max_measured (SARS-CoV-2) | perc_min_measured (SARS-CoV-2) | perc_remaining_no_cofactor [4, 16] | further results
1 | O=C(Nc1ccccc1)Nc1ccc(C(=O)NC2c3cccc(O)c3CC2C(=O)O)cc1 (stereo not drawn) [ASAP-0000132] | 319 µM (≈ 138 µg/mL) | 91.0% | 0.12 | 2.0 µL/min/mg | 111.0% | 1066.4 min | 9.0 µL/min/mg | 123.0% | 187.2 min | 96.0% | – | – | – | – | – | – | – | – | – | – | papp_a_to_b_mean [2, 10]: 0.7 ×10⁻⁶ cm/s; inhibition at 50 µM (SARS-CoV-2 nsp3-mac1 [3]; read-out: perc_inhibition_mean, batch_name=ASAP-0000132-001): 99.9%; perc_remaining_no_cofactor [4, 12]: 99.0%; hill_slope (SARS-CoV-2 nsp3-mac1 [5]): 1.06; perc_max_measured (SARS-CoV-2 nsp3-mac1 [5]; TR-FRET dose response): 99.438%; perc_min_measured (SARS-CoV-2 nsp3-mac1 [5]; TR-FRET dose response): -1.931%; pic50 (SARS-CoV-2 nsp3-mac1 [5]; TR-FRET dose response, supplement): 5.991; IC50 (SARS-CoV-2 nsp3-mac1 [5]; [13]): 1.02 µM; perc_inhibition_mean (SARS-CoV-2 nsp3-mac1 [6]): 99.903%
2 | CC(C)[C@@H](Nc1ncnc2[nH]c(C(N)=O)cc12)c1ccc2c(c1)OCCO2 [ASAP-0008438] | – | – | – | – | – | – | – | – | – | – | 102.95% and 76.872% | 63.007% and 58.0% | 108.483% and 95.443% | > 20 µM | > 20 µM | > 50 µM | > 50 µM | 162.718% | 51.066% | – | cc10 (HeLa-ACE2 cells): < 0.082 µM; cc50 (HeLa-ACE2 cells): < 0.082 µM; CC50 (iPSC pneumocytes; [15]): > 50 µM; cc10 (iPSC pneumocytes; [15]): > 50.0 µM; perc_max_measured (iPSC pneumocytes; [15]): 107.376%; perc_min_measured (iPSC pneumocytes; [15]): 74.883%; CC50 (in vitro; ASAP-0008327-001=ASAP-0008438-001): > 50 µM
3 | CNC(=O)Cn1cc(-c2cc3c(N[C@H](c4ccc5c(c4)S(=O)(=O)CCC5)C(C)C)ncnc3[nH]2)cn1 (single isomer, unassigned) [ASAP-0011171] | 323 µM (≈ 164 µg/mL) | 65.1% | 2.4 | 111.0 µL/min/mg | 16.0% | 15.0 min | 92.0 µL/min/mg | 23.0% | 18.1 min | 101.0% | 102.722% | 92.936% | 108.143% | > 20 µM | > 20 µM | > 50 µM | > 50 µM | 106.027% | 60.326% | 96.0% | CC50 (HeLa-ACE2 cells; [14]): > 20 µM; cc10 (HeLa-ACE2 cells; [14]): > 20.0 µM; papp_a_to_b_mean [2, 10]: 0.396 ×10⁻⁶ cm/s; CC50 (iPSC pneumocytes): > 50 µM; cc10 (iPSC pneumocytes): > 50.0 µM; perc_max_measured (iPSC pneumocytes): 98.842%; perc_min_measured (iPSC pneumocytes): 89.646%; CC50 (in vitro; ASAP-0008327-001=ASAP-0011171-001): > 50 µM; perc_min_measured [8]: 92.194%
4 | CC(C)C(Nc1ncnc2[nH]ccc12)c1ccc2c(c1)NC(=O)CO2 (stereo not drawn) [ASAP-0008431] | 374 µM (≈ 126 µg/mL) | 86.0% and 98.9% | – | 78.0 µL/min/mg | 26.0% and 27.0% | 20.9 min and 21.4 min | 31.0 µL/min/mg | 73.0% and 56.0% | 79.0 min and 54.3 min | 105.0% and 92.0% | – | – | – | – | – | – | – | – | – | 110.0% | solubility ([1]; pH 7.4, solubility_mean, In vitro kinetic solubility, ph 7.4): 389 µM (≈ 131 µg/mL); logd (LogD; pH 7.4, logd, In vitro LogD): 2.2; perc_remaining_no_cofactor [4, 12]: 93.0%; microsomal CLint ([4]; mouse, liver microsomes, In vitro mouse liver microsomal stability): 80 µL/min/mg; IC50 (SARS-CoV-2 nsp3-mac1 [5]; HTRF IC50, Figure 4A, racemic mixture): 0.39 µM; microsomal CLint ([7]; human): 21 µL/min/mg
5 | CC(C)[C@@H](Nc1ncnc2[nH]c(-c3cnn(CC(N)=O)c3)cc12)c1ccc2c(n1)OCCO2 (single isomer, unassigned) [ASAP-0012315] | 395 µM (≈ 177 µg/mL) | – | 2.4 | 9.0 µL/min/mg | 90.0% | 182.3 min | 18.0 µL/min/mg | 77.0% | 91.8 min | 95.0% | 91.832% | 81.293% | 122.738% | > 20 µM | > 20 µM | > 50 µM | > 50 µM | 94.962% | 56.467% | 102.0% | papp_b_to_a_mean ([2]; In vitro MDR1-MDCKII permeability, B to A, no inhibitor): 2.3 ×10⁻⁶ cm/s and 3.5 ×10⁻⁶ cm/s; perc_recovery_a_to_b_mean ([2]; In vitro MDR1-MDCKII permeability, no inhibitor): 59.0% and 72.1% and 66.1%; perc_recovery_b_to_a_mean ([2]; In vitro MDR1-MDCKII permeability, recovery B to A, no inhibitor): 78.3% and 92.2%; perc_recovery_a_to_b_inhibitor_mean ([2]; with inhibitor Cyclosporin A): 64.5%; perc_recovery_a_to_b_inhibitor_mean ([2]; with inhibitor Verapamil): 96.8%; perc_recovery_b_to_a_inhibitor_mean ([2]; recovery B to A, with inhibitor Cyclosporin A): 57.4%; perc_recovery_b_to_a_inhibitor_mean ([2]; recovery B to A, with inhibitor Verapamil): 85.3%; CC50 (iPSC pneumocytes): > 50 µM; cc10 (iPSC pneumocytes): > 50.0 µM; perc_max_measured (iPSC pneumocytes): 105.354%; perc_min_measured (iPSC pneumocytes): 100.058%; CC50 (in vitro; ASAP-0008327-001=ASAP-0012315-001): > 50 µM; perc_min_measured [8]: 101.22%
6 | CNC(=O)Cn1cc(-c2cc3c(NC(c4ccc5c(c4)OCCO5)C(C)C)ncnc3[nH]2)cn1 (stereo not drawn) [ASAP-0008565] | – | 94.1% | – | – | 46.0% | 35.7 min | – | 14.0% | 14.0 min | 92.0% | – | – | – | – | – | – | – | – | – | 90.0% | solubility ([1]; pH 7.4): 289 µM (≈ 133 µg/mL); Papp A→B (MDR1): 1.94 ×10⁻⁶ cm/s; logd (LogD): 2.9; microsomal CLint ([4]; liver microsomes; In vitro mouse liver microsomal stability): 47 µL/min/mg; IC50 (SARS-CoV-2 nsp3-mac1 [5]; IC50, nsp3-mac1 activity, Figures 1-3 and text): 0.25 µM; increase in potency relative to the starting point (SARS-CoV-2 nsp3-mac1 [5]; relative to ASAP-000450): 10 x; microsomal CLint [7]: 119 µL/min/mg
7 | O=C(OCc1cccc(Cl)n1)c1ncnc2[nH]ccc12 [ASAP-0000193] | – | – | – | – | – | – | – | – | – | – | – | – | – | – | – | – | – | – | – | – | inhibition at 50 µM (SARS-CoV-2 nsp3-mac1 [3]; read-out: perc_inhibition_mean, batch_name=ASAP-0000193-001): 11.4%; hill_slope (SARS-CoV-2 nsp3-mac1 [5]): 1.685; perc_max_measured (SARS-CoV-2 nsp3-mac1 [5]; TR-FRET dose response): 38.614%; perc_min_measured (SARS-CoV-2 nsp3-mac1 [5]; TR-FRET dose response): -4.676%; IC50 (SARS-CoV-2 nsp3-mac1 [5]; [13]): > 124 µM; perc_inhibition_mean (SARS-CoV-2 nsp3-mac1 [6]): 11.426%
